Data as given in ChEMBL document CHEMBL4616644, “Furofuranone Lignans from Leucophyllum ambiguum” (J Nat Prod, 2020).
pIC50: −log10 of the molar value.

Columns and labels:
Acetylcholinesterase [1] = target: T1, Acetylcholinesterase (Homo sapiens, UniProt P22303); assay: Inhibition of acetylcholinesterase (unknown origin) using acetylthiocholine as substrate preincubated for 30 mins followed by substrate addition and measured after 2 mins by Ellman's method
Acetylcholinesterase [2] = target: T1, Acetylcholinesterase; assay: Inhibition of acetylcholinesterase (unknown origin) at 0.01 to 100 uM using acetylthiocholine as substrate preincubated for 30 mins followed by substrate addition and measured after 2 mins by Ellman's method relative to control

T1 sequence (P22303 whole entry): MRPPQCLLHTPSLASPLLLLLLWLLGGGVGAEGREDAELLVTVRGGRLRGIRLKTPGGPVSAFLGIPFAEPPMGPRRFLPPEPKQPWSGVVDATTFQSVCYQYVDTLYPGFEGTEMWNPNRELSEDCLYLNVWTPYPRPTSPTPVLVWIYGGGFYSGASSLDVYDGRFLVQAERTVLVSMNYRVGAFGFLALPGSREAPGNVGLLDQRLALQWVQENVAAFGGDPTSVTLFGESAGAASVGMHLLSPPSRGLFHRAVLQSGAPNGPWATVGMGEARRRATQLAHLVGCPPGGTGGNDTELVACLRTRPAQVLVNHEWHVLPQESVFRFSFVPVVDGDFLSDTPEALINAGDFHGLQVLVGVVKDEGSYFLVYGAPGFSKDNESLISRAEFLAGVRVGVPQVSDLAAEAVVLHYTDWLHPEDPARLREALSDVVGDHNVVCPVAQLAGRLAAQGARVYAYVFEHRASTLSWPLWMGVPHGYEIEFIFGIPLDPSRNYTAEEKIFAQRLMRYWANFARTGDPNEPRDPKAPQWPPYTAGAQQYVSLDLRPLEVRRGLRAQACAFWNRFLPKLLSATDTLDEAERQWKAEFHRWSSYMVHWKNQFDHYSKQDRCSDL

COc1ccc([C@H]2O[C@@H](O)[C@H]3[C@@H]2C(=O)O[C@@H]3c2cc(OC)c3c(c2)OCO3)cc1OC
pIC50 (Acetylcholinesterase [1]): 8.52
inhibition (Acetylcholinesterase [2]): > 70%

COc1ccc([C@H](O)[C@H](N)C(=O)O)cc1OC
pIC50 (Acetylcholinesterase [1]): 9.00
inhibition (Acetylcholinesterase [2]): > 70%

COc1ccc([C@H]2OC(=O)[C@H]3[C@@H]2C(=O)O[C@@H]3c2ccc3c(c2)OCO3)cc1OC
pIC50 (Acetylcholinesterase [1]): 6.80
inhibition (Acetylcholinesterase [2]): > 90%

COc1ccc([C@H]2OC[C@H]3[C@@H]2C(=O)O[C@@H]3c2ccc3c(c2)OCO3)cc1OC
pIC50 (Acetylcholinesterase [1]): 5.65
inhibition (Acetylcholinesterase [2]): > 70%

COc1ccc([C@H]2OC[C@H]3[C@@H]2CO[C@@H]3c2cc(OC)c(OC)c(OC)c2)cc1OC
pIC50 (Acetylcholinesterase [1]): 6.04
inhibition (Acetylcholinesterase [2]): > 90%

COc1cc([C@H]2OC[C@H]3[C@@H]2CO[C@@H]3c2cc(OC)c(OC)c(OC)c2)cc(OC)c1OC
pIC50 (Acetylcholinesterase [1]): 6.21
inhibition (Acetylcholinesterase [2]): 65%

COc1ccc([C@H]2O[C@@H](O)[C@H]3[C@@H]2C(=O)O[C@@H]3c2ccc(OC)c(OC)c2)cc1OC
pIC50 (Acetylcholinesterase [1]): 7.55
inhibition (Acetylcholinesterase [2]): > 70%

COc1cc([C@H]2OC[C@H]3[C@@H]2CO[C@@H]3c2cc(OC)c3c(c2)OCO3)cc(OC)c1OC
pIC50 (Acetylcholinesterase [1]): 6.34
inhibition (Acetylcholinesterase [2]): 81%
